Like-named read-outs stand apart in the source and are kept apart here.
How the values were obtained:
K-562 = assay: NCI-60 SRB screen: leukemia K-562; format: cell-based, human; settings: K-562
A549/ATCC = assay: NCI-60 SRB screen: non-small cell lung cancer A549/ATCC; format: cell-based, human; settings: A549/ATCC
EKVX = assay: NCI-60 SRB screen: non-small cell lung cancer EKVX; format: cell-based, human
HOP-62 = assay: NCI-60 SRB screen: non-small cell lung cancer HOP-62; format: cell-based, human; settings: HOP-62
NCI-H226 = assay: NCI-60 SRB screen: non-small cell lung cancer NCI-H226; format: cell-based, human; settings: NCI-H226
NCI-H23 = assay: NCI-60 SRB screen: non-small cell lung cancer NCI-H23; format: cell-based, human; settings: NCI-H23
NCI-H322M = assay: NCI-60 SRB screen: non-small cell lung cancer NCI-H322M; format: cell-based, human
NCI-H522 = assay: NCI-60 SRB screen: non-small cell lung cancer NCI-H522; format: cell-based, human; settings: NCI-H522
HCC-2998 = assay: NCI-60 SRB screen: colon cancer HCC-2998; format: cell-based, human; settings: HCC-2998
HCT-15 = assay: NCI-60 SRB screen: colon cancer HCT-15; format: cell-based, human; settings: HCT-15
HT29 = assay: NCI-60 SRB screen: colon cancer HT29; format: cell-based; settings: Homo sapiens, HT29
KM12 = assay: NCI-60 SRB screen: colon cancer KM12; format: cell-based, human; settings: KM12
SW-620 = assay: NCI-60 SRB screen: colon cancer SW-620; format: cell-based; settings: Homo sapiens, 48 h, SW-620
SF-268 = assay: NCI-60 SRB screen: CNS cancer SF-268; format: cell-based, human; settings: SF-268
SF-539 = assay: NCI-60 SRB screen: CNS cancer SF-539; format: cell-based, human; settings: SF-539
SNB-19 = assay: NCI-60 SRB screen: CNS cancer SNB-19; format: cell-based, human; settings: SNB-19
MALME-3M = assay: NCI-60 SRB screen: melanoma MALME-3M; format: cell-based, human; settings: MALME-3M
SK-MEL-2 = assay: NCI-60 SRB screen: melanoma SK-MEL-2; format: cell-based, human; settings: SK-MEL-2
SK-MEL-28 = assay: NCI-60 SRB screen: melanoma SK-MEL-28; format: cell-based, human; settings: SK-MEL-28
OVCAR-4 = assay: NCI-60 SRB screen: ovarian cancer OVCAR-4; format: cell-based; settings: Homo sapiens; OVCAR-4; five concentrations, 48 h, SRB; read-out: GI50
SK-OV-3 = assay: NCI-60 SRB screen: ovarian cancer SK-OV-3; format: cell-based, human; settings: SK-OV-3
786-0 = assay: NCI-60 SRB screen: renal cancer 786-0; format: cell-based, human; settings: 786-0
CAKI-1 = assay: NCI-60 SRB screen: renal cancer CAKI-1; format: cell-based, human; settings: CAKI-1
UO-31 = assay: NCI-60 SRB screen: renal cancer UO-31; format: cell-based, human; settings: UO-31
PC-3 = assay: NCI-60 SRB screen: prostate cancer PC-3; format: cell-based, human; settings: PC-3
BT-549 = assay: NCI-60 SRB screen: breast cancer BT-549; format: cell-based, human; settings: BT-549
T-47D = assay: NCI-60 SRB screen: breast cancer T-47D; format: cell-based, human; settings: T-47D
MDA-MB-468 = assay: NCI-60 SRB screen: breast cancer MDA-MB-468; format: cell-based, human
[1] = system: 60 human tumor cell lines; assay: cells
Leukemia subpanel = assay: NCI-60 screen, subpanel Leukemia
Melanoma subpanel = assay: NCI-60 screen, subpanel Melanoma
NSCL cancer subpanel = assay: NCI-60 screen, subpanel NSCL cancer
Renal Cancer subpanel = assay: NCI-60 screen, subpanel Renal Cancer
Ovarian Cancer subpanel = assay: NCI-60 screen, subpanel Ovarian Cancer
[2] = Homo sapiens, five concentrations, 48 h, SRB, read-out: GI50

For `C=C(C)[C@@H]1CC[C@]2(C(=O)NCCNCCNCCN)CC[C@]3(C)[C@H](CC[C@@H]4[C@@]5(C)CCC(=O)C(C)(C)[C@@H]5CC[C@]43C)[C@@H]12` [Compound 11], the GI50 (K-562; Homo sapiens, K562, five concentrations, 48 h, SRB, read-out: GI50) was 8.2 µM, the “Percentage Cell Growth” value (K-562; single dose 10 µM) was −16.99% and the “Percentage Cell Growth” value (A549/ATCC; single dose 10 µM) was −76.50%. The GI50 (A549/ATCC; [2]) was 7.69 µM, the GI50 (EKVX; [2]) was 7.34 µM and the “Percentage Cell Growth” value (EKVX; single dose 10 µM) was 11.37%. The “Percentage Cell Growth” value (HOP-62; single dose 10 µM) was 43.09%, the GI50 (HOP-62; [2]) was 7.91 µM and the GI50 (NCI-H226; [2]) was 7.74 µM. For the same compound, the “Percentage Cell Growth” value (NCI-H226; single dose 10 µM) was 74.30%, the GI50 (NCI-H23; [2]) was 9.14 µM and the “Percentage Cell Growth” value (NCI-H23; single dose 10 µM) was −35.23%. The GI50 (NCI-H322M; [2]) was 7.32 µM, the “Percentage Cell Growth” value (NCI-H322M; single dose 10 µM) was −81.08% and the GI50 (NCI-H522; [2]) was 8.72 µM. The “Percentage Cell Growth” value (NCI-H522; single dose 10 µM) was −69.70%, the “Percentage Cell Growth” value (HCC-2998; single dose 10 µM) was −90.04% and the GI50 (HCC-2998; [2]) was 7.16 µM. For the same compound, the “Percentage Cell Growth” value (HCT-15; single dose 10 µM) was −36.56%, the GI50 (HCT-15; [2]) was 7.65 µM and the activity at 10 µM (HT29; HT-29, 48 h, single dose 10 µM, read-out: Percentage Cell Growth) was -77.4%. For the same compound, the GI50 (HT29; HT-29, five concentrations, 48 h, SRB, read-out: GI50) was 7.17 µM, the GI50 (KM12; [2]) was 8.47 µM and the “Percentage Cell Growth” value (KM12; single dose 10 µM) was −81.93%. For the same compound, the activity at 10 µM (SW-620; single dose 10 µM, read-out: Percentage Cell Growth) was -76.7%, the GI50 (SW-620; five concentrations, SRB, read-out: GI50) was 7.91 µM and the GI50 (SF-268; [2]) was 7.53 µM. The “Percentage Cell Growth” value (SF-268; single dose 10 µM) was −38.68%, the GI50 (SF-539; [2]) was 7.53 µM and the “Percentage Cell Growth” value (SF-539; single dose 10 µM) was −92.71%. For the same compound, the GI50 (SNB-19; [2]) was 8.5 µM, the “Percentage Cell Growth” value (SNB-19; single dose 10 µM) was −78.54% and the GI50 (MALME-3M; [2]) was 7.4 µM. For the same compound, the “Percentage Cell Growth” value (MALME-3M; single dose 10 µM) was −72.82%, the GI50 (SK-MEL-2; [2]) was over 50 µM and the “Percentage Cell Growth” value (SK-MEL-2; single dose 10 µM) was 56.36%. For the same compound, the GI50 (SK-MEL-28; [2]) was 8.49 µM, the “Percentage Cell Growth” value (SK-MEL-28; single dose 10 µM) was −73.91% and the GI50 (OVCAR-4) was 7.39 µM. For the same compound, the GI50 (SK-OV-3; [2]) was 10.6 µM, the “Percentage Cell Growth” value (SK-OV-3; single dose 10 µM) was 70.49% and the “Percentage Cell Growth” value (786-0; single dose 10 µM) was −84.46%. The GI50 (786-0; [2]) was 7.8 µM, the “Percentage Cell Growth” value (CAKI-1; single dose 10 µM) was −8.79% and the GI50 (CAKI-1; [2]) was 5.87 µM. For the same compound, the GI50 (UO-31; [2]) was 6.85 µM, the “Percentage Cell Growth” value (UO-31; single dose 10 µM) was −96.35% and the GI50 (PC-3; [2]) was 6.26 µM. The “Percentage Cell Growth” value (PC-3; single dose 10 µM) was −24.64%, the “Percentage Cell Growth” value (BT-549; single dose 10 µM) was 58.31% and the GI50 (BT-549; [2]) was 8.91 µM. The GI50 (T-47D; Homo sapiens, T47D, five concentrations, 48 h, SRB, read-out: GI50) was 7.52 µM, the “Percentage Cell Growth” value (T-47D; single dose 10 µM) was −4.36% and the GI50 (MDA-MB-468; [2]) was 8.09 µM. The “Percentage Cell Growth” value (MDA-MB-468; single dose 10 µM) was −49.06%, the GI50 ([1]; read-out: GI50 ranges against all panels of NCI60) was 5.6 to 50 µM and the GI50 ([1]; read-out: MID a, average sensitivity of all cell line (GI50-MID)) was 9.17 µM. For the same compound, the “MID b, average sensitivity of all cell line of particular subpanel” value (from here on “MID b, average sensitivity”) (Leukemia subpanel) was 7.73 µM, the “Selectivity, ratio MID a: MID b” value (Leukemia subpanel) was 1.19 and the “MID b, average sensitivity” value (Melanoma subpanel) was 12.84 µM. For the same compound, the “Selectivity, ratio MID a: MID b” value (Melanoma subpanel) was 0.71, the “MID b, average sensitivity” value (NSCL cancer subpanel) was 7.58 µM and the “Selectivity, ratio MID a: MID b” value (NSCL cancer subpanel) was 1.21. For the same compound, the “MID b, average sensitivity” value (Renal Cancer subpanel) was 12.52 µM, the “Selectivity, ratio MID a: MID b” value (Renal Cancer subpanel) was 0.73 and the “MID b, average sensitivity” value (Ovarian Cancer subpanel) was 8.24 µM. The “Selectivity, ratio MID a: MID b” value (Ovarian Cancer subpanel) was 1.11.
